Measurements taken from patent publication US12533310B2, “Fragrance or flavor composition” (Takasago International Corporation, priority 2019, dated 2026).

Columns and labels:
[1] = tested on: cells not engineered to express the olfactory receptors; assay: Mock test of the luciferase reporter gene assay; assay type: cell-based, human
Protocol: (§1) Each human olfactory receptor gene expression vector (0.05 μg), RTP1S vector (0.01 μg), firefly luciferase vector pGL4.29 containing a cAMP response element promoter (Promega, 0.01 μg) and Renilla luciferase vector pGL4.74 containing a thymidine kinase promoter (Promega, 0.005 μg) were dissolved in 10 μL of Opti-MEMI (gibco) to give a gene solution (for one well). HEK293T cells were seeded in 100 μL volumes into 96-well plates (Biocoat, Corning) at a cell density reaching confluence after 24 hours, and the gene solutions were added to the respective wells to cause gene transfer into the cells by lipofection techniques in accordance with the usage of Lipofectamine 3000, followed by culture at 37° C. under a 5% carbon dioxide atmosphere for 24 hours.
(§2) After removal of the culture solutions, an odorous substance serving as an analyte, which had been prepared at a given concentration with CD293 (gibco) medium (supplemented with […] L-glutamine), was added in 50 μL volumes to stimulate the cells for 3 hours, followed by luciferase activity measurement in accordance with the usage of a Dual-Luciferase Reporter Assay System (Promega). The response intensity of each olfactory receptor polypeptide was expressed as a fold increase value, which was determined by dividing the luciferase activity generated upon stimulation with the odorous substance by the luciferase activity generated in a test system not containing the odorous substance.
(§3) The cells engineered to express human olfactory receptors OR2C1 and OR4Q3 were used to measure the response of these receptors to various concentrations of 1-octen-3-one by the luciferase reporter gene assay.

[2] = target: T1, human olfactory receptor OR4Q3 (Homo sapiens, UniProt Q8NH05); assay: Luciferase reporter gene assay, response of OR4Q3 to odorous substances; assay type: cell-based; conditions: various concentrations; cells stimulated 3 hours; FIGS. 2, 4, 5, 6
T1 construct: N-terminal 20 amino acid residues of bovine rhodopsin (Rho tag); expressed in transfected cells; host or cells: HEK293T
T1 sequence (Q8NH05 1-313): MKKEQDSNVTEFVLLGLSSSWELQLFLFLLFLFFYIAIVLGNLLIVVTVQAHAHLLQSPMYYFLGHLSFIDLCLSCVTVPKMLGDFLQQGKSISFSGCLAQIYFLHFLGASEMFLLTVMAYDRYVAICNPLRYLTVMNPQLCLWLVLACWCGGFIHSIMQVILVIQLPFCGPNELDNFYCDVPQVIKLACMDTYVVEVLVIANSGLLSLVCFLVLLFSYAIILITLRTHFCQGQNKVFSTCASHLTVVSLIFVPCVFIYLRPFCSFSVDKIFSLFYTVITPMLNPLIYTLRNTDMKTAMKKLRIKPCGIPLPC
Protocol: (§4) Human olfactory receptor genes were obtained by PCR cloning with Human Genomic DNA: Female (Promega) on the basis of their sequence information registered in GenBank. Into pME18S vectors, the N-terminal 20 amino acid residues of bovine rhodopsin were integrated and the resulting human olfactory receptor genes were integrated respectively downstream thereof to obtain human olfactory receptor gene expression vectors.
as §1, §2, §3
According to the same procedure as shown in Example 1, the cells engineered to express human olfactory receptors OR2C1 and OR4Q3 were used to measure the response of these receptors to various concentrations of 1,5-octadien-3-one by the luciferase reporter gene assay.
According to the same procedure as shown in Example 1, the cells engineered to express human olfactory receptor OR4Q3 were used to measure the response of this receptor to various concentrations of 1-octen-3-ol by the luciferase reporter gene assay. […]

[3] = target: T2, human olfactory receptor OR2C1 (Homo sapiens, UniProt O95371); assay: Luciferase reporter gene assay, response of OR2C1 to odorous substances; assay type: cell-based; conditions: various concentrations; cells stimulated 3 hours; FIGS. 1 and 3
T2 construct: N-terminal 20 amino acid residues of bovine rhodopsin (Rho tag); expressed in transfected cells; host or cells: HEK293T
T2 sequence (O95371 1-312): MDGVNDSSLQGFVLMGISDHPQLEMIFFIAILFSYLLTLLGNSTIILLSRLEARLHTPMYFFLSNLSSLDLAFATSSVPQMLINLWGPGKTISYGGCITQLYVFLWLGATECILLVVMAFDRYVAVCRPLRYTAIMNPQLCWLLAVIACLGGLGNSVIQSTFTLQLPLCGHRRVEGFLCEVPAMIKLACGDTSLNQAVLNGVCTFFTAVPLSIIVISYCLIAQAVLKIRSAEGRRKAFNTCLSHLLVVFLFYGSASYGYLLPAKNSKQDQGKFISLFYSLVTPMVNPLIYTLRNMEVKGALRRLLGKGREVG
Description: as §4, with “vectors. […]” for “vectors.”
as §2, with “substance. […]” for “substance.”

[4] = Sensory testing of offensive odor intensity, single offensive odors (Example 7); design: species or system human; conditions: for Offensive odor intensity 1,5-Octadien-3-ol: 1,5-octadien-3-ol diluted 100-fold with triethyl citrate; for Offensive odor intensity 1,5-Octadien-3-ol / Offensive odor intensity 1,5-Octadien-3-one / Offensive odor intensity 1-Octen-3-ol / Offensive odor intensity 1-Octen-3-one / Offensive odor intensity Trans-2-nonenal / Offensive odor intensity Trans-2-octenal: 10 μl, test substance 1 μl, odor alone set to 8, scale 0 to 10, mean of 10 panelists; for Offensive odor intensity 1,5-Octadien-3-one: 1,5-octadien-3-one diluted 1000-fold with triethyl citrate; for Offensive odor intensity 1-Octen-3-ol: 1-octen-3-ol diluted 100-fold with triethyl citrate; for Offensive odor intensity 1-Octen-3-one: 1-octen-3-one diluted 100-fold with triethyl citrate; for Offensive odor intensity Trans-2-nonenal: trans-2-nonenal diluted 1000-fold with triethyl citrate; for Offensive odor intensity Trans-2-octenal: trans-2-octenal diluted 1000-fold with triethyl citrate; for suppressive effect on offensive odors (each offensive odor of Example 7): summary in words for all six offensive odors
Description: Test substances having inhibitory activity on receptor activity were confirmed for their ability to suppress offensive odors by sensory testing. As offensive odors, trans-2-nonenal diluted 1000-fold with triethyl citrate, trans-2-octenal diluted 1000-fold with triethyl citrate, 1-octen-3-one diluted 100-fold with triethyl citrate, 1,5-octadien-3-one diluted 1000-fold with triethyl citrate, 1-octen-3-ol diluted 100-fold with triethyl citrate, and 1,5-octadien-3-ol diluted 100-fold with triethyl citrate were each added dropwise separately in a volume of 10 μl and a test substance was added dropwise in a volume of 1 μl to a cotton ball, which was then enclosed in a plastic bottle (OZO-40, Takemoto Yohki Co., Ltd., Japan). Each bottle was allowed to stand for 1 hour at room temperature to fully volatilize odor molecules in the bottle. Sensory testing was made by 10 panelists assuming that the odor intensity was set to 8 for each offensive odor when added dropwise alone, whereby the offensive odor intensity when a test substance was mixed was evaluated between 0 and 10. The resulting numerical values were used to calculate their mean value.

[5] = target: T3, OR2C1 (Homo sapiens, UniProt O95371); assay: Suppressive effect of offensive odor-suppressing materials on the response of OR2C1; assay type: cell-based; conditions: for suppressive effect on the response of OR2C1 to 1-octen-3-one: mixed at various concentrations with 30 μM 1-octen-3-one, response without material set to 100, FIGS. 7 and 8; for suppressive effect on the response of OR2C1 to trans-2-nonenal: mixed at various concentrations with 60 μM trans-2-nonenal, FIGS. 9 and 10; for suppressing the response of OR2C1: odorous substance not stated
T3 construct: N-terminal 20 amino acid residues of bovine rhodopsin (Rho tag); expressed in transfected cells; host or cells: HEK293T
T3 sequence (O95371 1-312): T2 sequence (O95371 1-312)
Protocol: as §2
According to the same procedure as shown in Example 1, offensive odor-suppressing materials 2-methyl-4-(2,2,3-trimethylcyclopent-3-enyl)but-2-en-1-ol (also known as 2-methyl-4-(2,2,3-trimethyl-3-cyclopentenyl)-2-buten-1-ol) (Hindinol®) and 1-(2,2,6-trimethylcyclohexyl)hexan-3-ol (Dextramber®) were each mixed at various concentrations with 30 μM 1-octen-3-one, and the cells engineered to express OR2C1 were used to measure the response of this receptor to 1-octen-3-one. The ratio of the fold increase value obtained in the test using the offensive odor-suppressing materials was determined assuming that the fold increase value obtained in the test without mixing the offensive odor-suppressing materials was set to 100.
According to the same procedure as shown in Example 5, offensive odor-suppressing materials 2-methyl-4-(2,2,3-trimethylcyclopent-3-enyl)but-2-en-1-ol (Hindinol®) and 1-(2,2,6-trimethylcyclohexyl)hexan-3-ol (Dextramber®) were each mixed at various concentrations with 60 μM trans-2-nonenal, and the cells engineered to express OR2C1 were used to measure the response of this receptor to trans-2-nonenal.

[6] = Sensory testing of offensive odor intensity, model odors (Example 8); design: species or system human
Protocol: These fragrance compositions 1 to 48 were confirmed for their ability to suppress offensive odors by sensory testing. As offensive odors, the model age-related body odor, the model underarm odor and the model musty odor indicated in Tables 8 to 10 below were each diluted 100-fold and added dropwise separately in a volume of […] and fragrance compositions 1 to 48 were each added dropwise separately in a volume of 1 μl as a test substance to a cotton ball, which was then enclosed in a plastic bottle (OZO-40, Takemoto Yohki Co., Ltd., Japan). Each bottle was allowed to stand for 1 hour at room temperature to fully volatilize odor molecules in the bottle. Sensory testing was made by 10 panelists assuming that the odor intensity was set to 8 for each offensive odor when added dropwise alone, whereby the offensive odor intensity when a test substance was mixed was evaluated between 0 and 10. The resulting numerical values were used to calculate their mean value.

[7] = target: T4, olfactory receptor OR2W1 (Homo sapiens, UniProt Q9Y3N9); conditions: background art; cited from earlier work
T4 sequence (Q9Y3N9 1-320): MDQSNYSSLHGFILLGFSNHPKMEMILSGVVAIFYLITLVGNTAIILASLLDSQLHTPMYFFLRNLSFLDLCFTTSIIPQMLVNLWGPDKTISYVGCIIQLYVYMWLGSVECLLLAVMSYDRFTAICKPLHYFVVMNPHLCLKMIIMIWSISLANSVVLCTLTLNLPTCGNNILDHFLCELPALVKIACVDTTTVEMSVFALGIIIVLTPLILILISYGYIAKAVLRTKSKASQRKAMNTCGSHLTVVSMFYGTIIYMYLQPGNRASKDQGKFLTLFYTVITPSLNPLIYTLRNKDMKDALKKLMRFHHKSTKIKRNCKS

Row | SMILES | response in Mock test [1] | response of olfactory receptor OR4Q3 to the odorous substance (fold increase value) [2] | Offensive odor intensity 1,5-Octadien-3-ol [4] | Offensive odor intensity 1,5-Octadien-3-one [4] | Offensive odor intensity 1-Octen-3-ol [4] | Offensive odor intensity 1-Octen-3-one [4] | Offensive odor intensity Trans-2-nonenal [4] | Offensive odor intensity Trans-2-octenal [4] | other results
1 | C=CC(O)CC=CCC (stereo not shown) [1,5-octadien-3-ol] | no response was observed in a Mock test | respond to 1,5-octadien-3-ol in a concentration-dependent manner |  |  |  |  |  |  | 
2 | C=CC(=O)CC=CCC [1,5-octadien-3-one] | no response was observed in a Mock test | respond to 1,5-octadien-3-one in a concentration-dependent manner |  |  |  |  |  |  | response of olfactory receptor OR2C1 to the odorous substance (fold increase value) [3]: respond to 1,5-octadien-3-one in a concentration-dependent manner
3 | C=CC(O)CCCCC (stereo not shown) [1-octen-3-ol] | no response was observed in a Mock test | respond to 1-octen-3-ol in a concentration-dependent manner |  |  |  |  |  |  | 
4 | C=CC(=O)CCCCC [1-octen-3-one] | no response was observed in a Mock test | respond to 1-octen-3-one in a concentration-dependent manner |  |  |  |  |  |  | response of olfactory receptor OR2C1 to the odorous substance (fold increase value) [3]: respond to 1-octen-3-one in a concentration-dependent manner
5 | O=C(OCc1ccccc1)c1ccccc1O [Benzyl salicylate, reference compound] |  |  | 6.5 | 7.8 | 7.0 | 7.5 | 7.9 | 7.5 | 
6 | CCCC(O)CCC1C(C)CCCC1(C)C (stereo not shown) [Dextramber, 1-(2,2,6-trimethylcyclohexyl)hexan-3-ol] |  |  | 1.9 | 2.6 | 2.0 | 2.3 | 2.8 | 2.2 | suppressive effect on offensive odors (each offensive odor of Example 7) [4]: found to suppress each offensive odor; suppressive effect on the response of OR2C1 to 1-octen-3-one [5]: reducing the response of OR2C1 to 1-octen-3-one in a concentration-dependent manner; suppressive effect on the response of OR2C1 to trans-2-nonenal [5]: reducing the response of OR2C1 to trans-2-nonenal in a concentration-dependent manner; suppressing the response of OR2C1 [5]: suppressing the response of OR2C1; suppressive effect on offensive odors (each model odor of Example 8) ([6]; summary in words for the model odors): found to suppress each offensive odor
7 | CC(=CCC1CC=C(C)C1(C)C)CO (stereo not shown) [Hindinol, 2-methyl-4-(2,2,3-trimethylcyclopent-3-enyl)but-2-en-1-ol] |  |  |  |  |  |  |  |  | suppressive effect on the response of OR2C1 to 1-octen-3-one [5]: reducing the response of OR2C1 to 1-octen-3-one in a concentration-dependent manner; suppressive effect on the response of OR2C1 to trans-2-nonenal [5]: reducing the response of OR2C1 to trans-2-nonenal in a concentration-dependent manner; Offensive odor intensity Model age-related body odor ([6]; model odor of Table 8 diluted 100-fold, fragrance composition 1 μl, odor alone set to 8, scale 0 to 10, mean of 10 panelists): suppress the intensity of the model age-related body odor and the model underarm odor; Offensive odor intensity Model underarm odor ([6]; model odor of Table 9 diluted 100-fold, fragrance composition 1 μl, odor alone set to 8, scale 0 to 10, mean of 10 panelists): suppress the intensity of the model age-related body odor and the model underarm odor
8 | O=C1CCCCCCCCCCCC(=O)OCCO1 [MUSK T, 1,4-dioxacycloheptadecane-5,17-dione] |  |  | 3.0 | 3.2 | 3.2 | 2.8 | 2.9 | 2.9 | suppressive effect on offensive odors (each offensive odor of Example 7) [4]: found to suppress each offensive odor; suppressing the response of OR2C1 [5]: suppressing the response of OR2C1
9 | CCCCCC(=O)O [hexanoic acid] |  |  |  |  |  |  |  |  | response of olfactory receptor OR2W1 [7]: responds to hexanoic acid
